{
  "source": "paper PMC4601562",
  "about": "(Bioorganic & medicinal chemistry, 2015)",
  "assay_type_in_all_cases": "biochemical",
  "key": {"[1]": {"system": "spASADH", "conditions": "ratio of Ki vcASADH / spASADH"}, "[2]": {"target": "vcASADH (Vibrio cholerae, UniProt Q9KQG2)", "sequence (Q9KQG2 whole entry)": "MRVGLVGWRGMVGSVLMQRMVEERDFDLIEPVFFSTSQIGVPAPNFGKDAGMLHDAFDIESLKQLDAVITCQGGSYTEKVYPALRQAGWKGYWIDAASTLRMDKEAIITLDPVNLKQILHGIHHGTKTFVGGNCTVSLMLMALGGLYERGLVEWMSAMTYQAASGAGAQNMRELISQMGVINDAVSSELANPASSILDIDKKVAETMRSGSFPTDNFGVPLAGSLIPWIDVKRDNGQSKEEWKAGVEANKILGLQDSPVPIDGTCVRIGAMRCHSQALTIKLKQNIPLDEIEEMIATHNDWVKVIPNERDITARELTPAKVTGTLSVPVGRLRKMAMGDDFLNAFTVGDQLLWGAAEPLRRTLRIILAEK", "assay": "ASADH kinetic assay"}, "[3]": {"target": "T1, spASADH (Streptococcus pneumoniae, UniProt Q8DQ00)", "T1 sequence (Q8DQ00 1-358)": "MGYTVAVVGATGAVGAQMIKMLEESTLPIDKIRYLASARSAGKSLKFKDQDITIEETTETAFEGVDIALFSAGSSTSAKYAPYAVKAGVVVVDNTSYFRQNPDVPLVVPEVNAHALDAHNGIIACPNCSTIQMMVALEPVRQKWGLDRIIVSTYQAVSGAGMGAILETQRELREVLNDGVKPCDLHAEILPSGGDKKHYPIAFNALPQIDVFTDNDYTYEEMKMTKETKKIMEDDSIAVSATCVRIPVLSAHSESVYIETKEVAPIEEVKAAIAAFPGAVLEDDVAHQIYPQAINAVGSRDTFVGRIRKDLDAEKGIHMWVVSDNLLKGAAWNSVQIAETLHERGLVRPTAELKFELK"}},
  "data": [
    {"compound": "CC(C)(C)c1ccc(CN(CC(=O)[O-])Cc2ccc(C(=O)[O-])c(C(=O)[O-])c2)cc1.[Na+].[Na+].[Na+]", "note": "[compound 33, N-(4-t-butylbenzyl)-N-carboxymethyl-3,4-dicarboxybenzylamine]", "values": [
      {"measurement": "selectivity for spASADH relative to vcASADH", "setting": "[1]", "result": "over 40 fold"}
    ]},
    {"compound": "CN(CC(=O)[O-])Cc1cccc(C(=O)[O-])c1C(=O)[O-].[Na+].[Na+].[Na+]", "note": "[compound 9, N-methyl, N-carboxymethyl-2,3-dicarboxybenzylamine]", "values": [
      {"measurement": "inhibition of vcASADH (in words)", "setting": "[2]", "result": "no inhibition"}
    ]},
    {"compound": "O=C([O-])CN(Cc1ccc(C(=O)[O-])c(C(=O)[O-])c1)c1ccc(-c2ccccc2)cc1.[Na+].[Na+].[Na+]", "note": "[compound 17, N-(4-biphenyl)-N-carboxymethyl-3,4-dicarboxybenzylamine]", "values": [
      {"measurement": "improved inhibition of spASADH relative to the parent benzyl derivative", "setting": "[3]; relative to parent benzyl derivative (13)", "result": 25, "unit": "fold"}
    ]},
    {"compound": "NC(=O)c1ccc(CN(CC(=O)[O-])Cc2ccc(C(=O)[O-])c(C(=O)[O-])c2)cc1.[Na+].[Na+].[Na+]", "note": "[compound 32, N-(4-carboxamidebenzyl)-N-carboxymethyl-3,4-dicarboxybenzylamine]", "values": [
      {"measurement": "loss of affinity", "setting": "[3]; carboxamide (32) relative to p-carboxylbenzyl derivative (31)", "result": 3, "unit": "fold"}
    ]},
    {"compound": "O=C([O-])CCNCc1ccc(C(=O)[O-])c(C(=O)[O-])c1.[Na+].[Na+].[Na+]", "note": "[compound 4, N-carboxyethyl-3,4-dicarboxybenzylamine]", "values": [
      {"measurement": "inhibition of vcASADH (in words)", "setting": "[2]", "result": "did not show appreciable inhibition"}
    ]}
  ]
}
